ChEMBL document CHEMBL1143311, “Structure-activity relationship and studies on the molecular mechanism of leishmanicidal N,C-coupled arylisoquinolinium salts” (J Med Chem, 2009)
Activity calls are given as the source filed them. The rule behind the calls is not given here.

Experiments:
Leishmania major [1] = assay: Antileishmanial activity against Leishmania major MHOM/IL/81/FE/BNI promastigotes infected in BALB/c mouse peritoneal macrophages assessed as decrease in infection rate after 48 hrs by fluorescence microscopy; type: functional, organism-based
Leishmania major [2] = assay: Antileishmanial activity against Leishmania major MHOM/IL/81/FE/BNI promastigotes by alamar blue assay; type: functional, organism-based
[3] = Selectivity index, ratio of IC50 for mouse J774.1 cells to IC50 for Leishmania major MHOM/IL/81/FE/BNI promastigotes; type: toxicity; conditions: J774.1 cells, read-out: Ratio IC50
[4] = Ratio of IC50 for BALB/c mouse peritoneal macrophages to EC50 for Leishmania major MHOM/IL/81/FE/BNI promastigotes
[5] = Antiproliferative activity against mouse J774.1 cells after 48 hrs by alamar blue assay; type: cell-based; conditions: Mus musculus, J774.1, 48 h
[6] = Cytotoxicity against BALB/c mouse peritoneal macrophages after 48 hrs by alamar blue assay; type: cell-based; conditions: Macrophage
Cytochrome P450 3A4 = Cytochrome P450 3A4 (Homo sapiens, UniProt P08684); assay: Inhibition of human CYP3A4 at 100 uM by LC/ESI-MS analysis; type: ADME
Chain of Cytochrome P450 3A4 (P08684 whole entry): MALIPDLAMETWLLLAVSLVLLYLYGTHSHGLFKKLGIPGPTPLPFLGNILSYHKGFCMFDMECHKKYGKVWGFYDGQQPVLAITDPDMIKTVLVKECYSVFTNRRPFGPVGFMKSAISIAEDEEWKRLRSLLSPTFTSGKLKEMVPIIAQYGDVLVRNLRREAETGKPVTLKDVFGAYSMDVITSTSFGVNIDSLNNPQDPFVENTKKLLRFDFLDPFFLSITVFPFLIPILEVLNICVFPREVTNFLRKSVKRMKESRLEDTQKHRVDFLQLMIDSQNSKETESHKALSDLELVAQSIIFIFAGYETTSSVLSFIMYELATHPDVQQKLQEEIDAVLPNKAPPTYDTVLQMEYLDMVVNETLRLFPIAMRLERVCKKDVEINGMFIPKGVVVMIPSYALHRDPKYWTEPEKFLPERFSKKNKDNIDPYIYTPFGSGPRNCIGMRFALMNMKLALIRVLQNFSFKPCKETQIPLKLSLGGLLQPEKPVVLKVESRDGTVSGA

Cytochrome P450 2D6 [7] = biological target: T1, Cytochrome P450 2D6 (Homo sapiens, UniProt P10635); assay: Inhibition of human CYP2D6 expressed in baculovirus-infected insect cell system; type: ADME
T1 sequence (P10635 whole entry): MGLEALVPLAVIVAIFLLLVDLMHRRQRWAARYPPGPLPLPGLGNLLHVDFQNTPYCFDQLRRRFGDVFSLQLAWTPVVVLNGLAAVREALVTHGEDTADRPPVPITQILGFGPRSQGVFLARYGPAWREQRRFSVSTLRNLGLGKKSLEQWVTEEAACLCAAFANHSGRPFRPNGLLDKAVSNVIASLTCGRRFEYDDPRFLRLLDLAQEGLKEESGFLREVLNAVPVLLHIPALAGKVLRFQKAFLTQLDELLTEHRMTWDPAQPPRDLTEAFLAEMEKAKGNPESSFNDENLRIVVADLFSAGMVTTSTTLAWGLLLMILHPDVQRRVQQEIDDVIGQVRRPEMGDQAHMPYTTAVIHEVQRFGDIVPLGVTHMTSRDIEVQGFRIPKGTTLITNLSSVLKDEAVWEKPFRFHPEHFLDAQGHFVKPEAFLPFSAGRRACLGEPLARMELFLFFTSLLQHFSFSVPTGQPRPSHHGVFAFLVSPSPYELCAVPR

Cytochrome P450 2C19 = Cytochrome P450 2C19 (Homo sapiens, UniProt P33261); assay: Inhibition of human CYP2C19 at 100 uM by LC/ESI-MS analysis; type: ADME
Chain of Cytochrome P450 2C19 (P33261 whole entry): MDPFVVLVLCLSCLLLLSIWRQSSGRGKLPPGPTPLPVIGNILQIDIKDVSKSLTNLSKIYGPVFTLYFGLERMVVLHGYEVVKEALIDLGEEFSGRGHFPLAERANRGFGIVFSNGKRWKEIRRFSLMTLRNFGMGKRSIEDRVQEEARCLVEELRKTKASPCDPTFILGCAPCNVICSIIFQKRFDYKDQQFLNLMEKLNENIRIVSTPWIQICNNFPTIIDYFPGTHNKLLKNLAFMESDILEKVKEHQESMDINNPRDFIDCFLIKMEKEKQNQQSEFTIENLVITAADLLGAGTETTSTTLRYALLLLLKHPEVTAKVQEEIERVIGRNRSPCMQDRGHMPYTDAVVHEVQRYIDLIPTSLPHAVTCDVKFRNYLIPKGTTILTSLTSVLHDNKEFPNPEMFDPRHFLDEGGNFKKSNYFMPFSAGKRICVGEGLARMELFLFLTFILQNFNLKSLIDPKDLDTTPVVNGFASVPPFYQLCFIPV

Cytochrome P450 2D6 [8] = biological target: T1, Cytochrome P450 2D6; assay: Inhibition of human CYP2D6 at 1 to 100 uM by LC/ESI-MS analysis; type: ADME
Cytochrome P450 2C9 = Cytochrome P450 2C9 (Homo sapiens, UniProt P11712); assay: Inhibition of human CYP2C9 at 100 uM by LC/ESI-MS analysis; type: ADME
Chain of Cytochrome P450 2C9 (P11712 whole entry): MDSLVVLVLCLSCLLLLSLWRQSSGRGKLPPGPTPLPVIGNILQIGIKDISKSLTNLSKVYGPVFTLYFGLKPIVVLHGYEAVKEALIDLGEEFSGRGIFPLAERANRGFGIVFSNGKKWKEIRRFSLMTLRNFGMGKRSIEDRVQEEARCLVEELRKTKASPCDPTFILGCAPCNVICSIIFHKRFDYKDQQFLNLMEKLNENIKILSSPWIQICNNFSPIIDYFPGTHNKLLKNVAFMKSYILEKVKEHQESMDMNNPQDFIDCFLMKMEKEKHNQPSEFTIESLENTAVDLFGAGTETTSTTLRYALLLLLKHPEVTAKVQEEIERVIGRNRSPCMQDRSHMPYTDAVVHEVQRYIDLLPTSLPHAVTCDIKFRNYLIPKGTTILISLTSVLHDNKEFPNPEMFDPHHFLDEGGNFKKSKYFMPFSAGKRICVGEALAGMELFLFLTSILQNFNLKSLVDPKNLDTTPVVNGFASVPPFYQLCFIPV

Cytochrome P450 2D6 [9] = biological target: T1, Cytochrome P450 2D6; assay: Inhibition of human CYP2D6 by Lineweaver-Burke plot; type: ADME
Albumin = Albumin (Bos taurus, UniProt P02769); assay: Binding affinity to bovine serum albumin by ultrafiltration method; type: ADME; conditions: cattle; for fraction unbound: bovine serum albumin, read-out: PPB (converted)
Chain of Albumin (P02769 whole entry): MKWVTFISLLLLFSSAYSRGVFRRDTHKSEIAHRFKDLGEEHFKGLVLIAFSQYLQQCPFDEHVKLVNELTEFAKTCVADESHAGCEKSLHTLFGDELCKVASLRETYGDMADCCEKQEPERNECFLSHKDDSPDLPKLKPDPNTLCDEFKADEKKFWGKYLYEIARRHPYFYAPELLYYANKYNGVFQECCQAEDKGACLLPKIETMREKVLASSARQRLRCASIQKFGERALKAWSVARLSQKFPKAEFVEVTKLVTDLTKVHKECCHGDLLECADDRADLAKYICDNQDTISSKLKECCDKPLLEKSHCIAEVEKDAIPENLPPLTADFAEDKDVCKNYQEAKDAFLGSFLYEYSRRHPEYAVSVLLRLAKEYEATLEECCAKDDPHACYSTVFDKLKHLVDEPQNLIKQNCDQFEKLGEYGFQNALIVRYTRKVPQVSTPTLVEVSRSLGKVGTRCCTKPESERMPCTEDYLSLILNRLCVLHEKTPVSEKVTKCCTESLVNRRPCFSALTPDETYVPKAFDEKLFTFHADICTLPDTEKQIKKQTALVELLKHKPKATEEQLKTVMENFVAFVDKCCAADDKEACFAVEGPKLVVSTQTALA

Macrophage [10] = assay: Reduction of IL6 production in LPS-stimulated BALB/c mouse peritoneal macrophages infected with Leishmania major MHOM/IL/81/FE/BNI promastigotes at 3 uM after 24 hrs by sandwich ELISA; type: functional, cell-based
Macrophage [11] = assay: Increase in nitric oxide production in LPS-stimulated BALB/c mouse peritoneal macrophages infected with Leishmania major MHOM/IL/81/FE/BNI promastigotes at 3 uM after 48 hrs by […]; type: functional, cell-based
Macrophage [12] = assay: Reduction of TNFalpha production in IFN-gamma-stimulated BALB/c mouse peritoneal macrophages infected with Leishmania major MHOM/IL/81/FE/BNI promastigotes at 3 uM after 24 hrs by sandwich ELISA; type: functional, cell-based
Macrophage [13] = assay: Increase in TGFbeta secretion in IFN-gamma-stimulated BALB/c mouse peritoneal macrophages infected with Leishmania major MHOM/IL/81/FE/BNI promastigotes at 3 uM after 24 hrs by sandwich ELISA; type: functional, cell-based
Macrophage [14] = assay: Decrease in IL10 secretion in LPS-stimulated BALB/c mouse peritoneal macrophages infected with Leishmania major MHOM/IL/81/FE/BNI promastigotes at 3 uM after 24 hrs by sandwich ELISA; type: functional, cell-based
Macrophage [15] = assay: Reduction of TNFalpha production in LPS-stimulated BALB/c mouse peritoneal macrophages infected with Leishmania major MHOM/IL/81/FE/BNI promastigotes at 3 uM after 24 hrs by sandwich ELISA; type: functional, cell-based
Macrophage [16] = assay: Reduction of IL6 production in IFN-gamma-stimulated BALB/c mouse peritoneal macrophages infected with Leishmania major MHOM/IL/81/FE/BNI promastigotes at 3 uM after 24 hrs by sandwich ELISA; type: functional, cell-based
Macrophage [17] = assay: Decrease in IL10 secretion in IFN-gamma-stimulated BALB/c mouse peritoneal macrophages infected with Leishmania major MHOM/IL/81/FE/BNI promastigotes at 3 uM after 24 hrs by sandwich ELISA; type: functional, cell-based
Macrophage [18] = assay: Increase in TGFbeta secretion in BALB/c mouse peritoneal macrophages infected with Leishmania major MHOM/IL/81/FE/BNI promastigotes at 3 uM after 24 hrs by sandwich ELISA; type: functional, cell-based

| Structure (SMILES) | IC50 (Leishmania major [2]; Leishmania major) | selectivity ratio [3] | IC50 [5] | further results |
| --- | --- | --- | --- | --- |
| C[C@@H]1[C@H](O)[C@@H](C)/C=C/C=C/C=C/C=C/C=C/C=C/C=C/[C@H](O[C@@H]2O[C@H](C)[C@@H](O)[C@H](N)[C@@H]2O)C[C@@H]2O[C@](O)(C[C@@H](O)C[C@@H](O)[C@H](O)CC[C@@H](O)C[C@@H](O)CC(=O)O[C@H]1C)C[C@H](O)[C@H]2C(=O)O [AMPHOTERICIN B] | 5.07 µM | > 14 | > 70 µM | EC50 (Leishmania major [1]): 0.075 µM; Ratio IC50/EC50 [4]: >1000; IC50 [6]: > 70 µM |
| CCCCc1ccc(-[n+]2c(C)cc3cc(OC)cc(OC)c3c2C)cc1 | 2.69 µM | < 1 | 4.47 µM |  |
| COc1cc(OC)c2c(C)[n+](-c3ccc(C(C)(C)C)cc3)c(C)cc2c1 | 2.67 µM | 1.6 | 4.28 µM |  |
| COc1cc(OC)c2c(C)[n+](-c3ccc4ccccc4c3)c(C)cc2c1 | 3.37 µM | 2.41 | 8.13 µM |  |
| COc1cc(OC)c2c(C)[n+](-c3cccc(C)c3C)c(C)cc2c1 | 11.6 µM | < 1 | 10.5 µM |  |
| COc1cc(OC)c2c(C)[n+](-c3cccc4cc5ccccc5cc34)c(C)cc2c1 |  | < 1 | 1.69 µM | IC50 (Leishmania major [2]): 1.85 µM |
| COc1cc(OC)c2c(C)[n+](-c3cccc4ccccc34)c(C)cc2c1.[O-][Cl+3]([O-])([O-])[O-] |  |  |  | Activity (Cytochrome P450 3A4): Active; IC50 (Cytochrome P450 2D6 [7]): 0.9 µM; Activity (Cytochrome P450 2C19): Active; Activity (Cytochrome P450 2D6 [8]): Active; Activity (Cytochrome P450 2C9): Active; Ki (Cytochrome P450 2D6 [9]): 0.45 µM; Activity (Albumin; isolated protein): Active |
| COc1cc(OC)c2c(C)[n+](-c3ccc(OC(C)=O)cc3)c(C)cc2c1 | > 100 µM |  | > 100 µM |  |
| COc1ccc(-[n+]2c(C)cc3cc(OC)cc(OC)c3c2C)cc1 | > 100 µM |  | > 100 µM |  |
| CCc1ccc(-[n+]2c(C)cc3cc(OC)cc(OC)c3c2C)cc1 | 5.53 µM | < 1 | 4.5 µM | fraction unbound (Albumin): 0.475 |
| COc1cc(OC)c2c(C)[n+](-c3cccc4ccccc34)c(C)cc2c1 |  |  |  | Activity (Macrophage [10]): Active; Activity (Macrophage [11]): inactive; Activity (Macrophage [12]): Active; Activity (Macrophage [13]): Active; Activity (Macrophage [14]): inactive; Activity (Macrophage [15]): Active; Activity (Macrophage [16]): Active; Activity (Macrophage [17]): inactive; Activity (Macrophage [18]): Active |
| COc1cc(OC)c2c(C)[n+](-c3c(C)cc(C)cc3C)c(C)cc2c1 | 1.49 µM | 2.82 | 4.2 µM |  |
| COc1cc2c(c(OC)c1)C(C)N(c1ccc(OC)c3c(OC)cc(C)cc13)[C@@H](C)C2 (mixture of isomers) | 64.8 µM |  | > 100 µM |  |
| COc1cc(OC)c2c(C)[n+](-c3ccc4scnc4c3)c(C)cc2c1 | > 100 µM |  | 63.2 µM | fraction unbound (Albumin): 0.671 |
| CCCc1ccc(-[n+]2c(C)cc3cc(OC)cc(OC)c3c2C)cc1 | 1.63 µM | 1.14 | 5.36 µM |  |
| COc1cc2c(c(OC)c1)C(C)N(c1ccc(OC)c3c(OC)cc(C)cc13)[C@H](C)C2 (mixture of isomers) | 66.7 µM |  | > 100 µM |  |
